From US20210300832A1, “Micronutrient Concentrate and use thereof” (FINE AGROCHEMICALS LIMITED, priority 2018, published 2021)
Where two headings read alike, the source gives them in different places.

Test: Solubility test of metal salts/chelates in glycol and other solvents
Procedure: The following mixtures were prepared from anhydrous copper-EDTA and the solvents described below.
Each time 1,2-propanediol was used as solvent. EDTA is ethylene-diamine tetra-acetic acid; DTPA is diethylenetriaminepentaacetic acid. […]

[1] = 1 wt % Cu.EDTA in the named solvent, same procedure as examples 1-9

| SMILES | clear solution with 1 wt % Cu.EDTA (comparison solvents) [1] | clear solution with 1 wt % Cu.EDTA (comparison solvents) |
| --- | --- | --- |
| OCCCCO [1,4-butanediol] | None of these solvents were able to provide a clear solution |  |
| CC(N)CO (centres unmarked) [2-aminopropanol] |  | None of these solvents were able to provide a clear solution |
| C[S+](C)[O-] [DMSO] |  | None of these solvents were able to provide a clear solution |
| CC(C)=O [acetone] | None of these solvents were able to provide a clear solution |  |
| CC(C)O [iso-propylalcohol] |  | None of these solvents were able to provide a clear solution |
